Like-named read-outs stand apart in the source and are kept apart here.
How the values were obtained:
[1] = DPPH free radical scavenging assay
Description: The free radical scavenging abilities of the extracts were determined using 2,2- Diphenyl-1-picrylhydrazyl (DPPH) assay modified by Brand-Williams et al. with some modification. In oxidized form of DPPH have deep violet color. On getting electrons from antioxidants the deep violet color changes to yellow color. DPPH solution was prepared by dissolving 20 mg in 100 ml methanol (stock solution). From this solution 3 ml were taken and its absorbance was adjusted to 0.75 at 515 nm (control solution). For the formation of free radical, the stock DPPH solution was covered with aluminum foil and kept in dark place for 24 h. For the preparation of stock solutions, 5 mg of each extracts were dissolved in 5 ml of methanol (5000 μg/5 ml). Different dilution (1000, 500, 250, 125 and 62.5 μg/ml) were prepared from stock solutions through serial dilution. About 2 ml from each dilution were mixed with 2 ml of DPPH solution and incubated for 15 min in darkness. The percentage inhibition of DPPH free radical by extracts was calculated using the following formula: 1 %inhibition=A−B/AX100
Where A is the absorbance of DPPH in oxidized state and B is the absorbance of mixture after 15 min of reaction. Ascorbic acid was used as standard antioxidant.

[2] = ABTS free radical scavenging assay
Description: These two solutions were mixed thoroughly and kept in dark overnight for the formation of free radical. About 3 ml were taken from this stock solution and its absorbance was adjusted to 0.76 at 745 nm (control solution). About 300 μl of test samples were mixed with 3 ml of ABTS solution and incubated for 15 min at 25 °C. The absorbance of the mixture was measured using a double beam spectrophotometer at 745 nm. The same procedure was followed for the preparation of different dilution of ascorbic acid (positive control). The data was recorded in triplicate and percent ABTS free radicals scavenging activities were calculated using Eq. 1.

[3] = target: T1, butyryl cholinesterase from equine (Equus caballus, UniProt P81908); assay: Butyrylcholinesterase inhibition (Ellman's assay); format: biochemical; details: for inhibition at 125 µg/mL: 125 μg/mL; for inhibition at 1000 µg/mL: 1000 μg/mL
T1 construct: purchased Sigma-Aldrich USA
Description: Acetyl cholinesterase (AChE) and butyryl cholinesterase (BChE) were used to evaluate the enzyme inhibitory potential of Bergenia ciliata rhizome extracts and isolated compounds using Ellman’s assay [18]. The mentioned enzymes when act on their respective substrates acetylthiocholine iodide and butyrylthiocholine iodide hydrolyze them which then on complexation with 5-thio-2-nitrobenzoate anion formed from DTNB give yellow color. The color change is recorded after 15 min by spectrophotometer. Phosphate buffer (pH = 8) was prepared by mixing 1.36 g/100 mL, potassium dihydrogen phosphate and 1.74 g/100 mL di-potassium hydrogen phosphate (6 and 94% respectively). The AChE solution was prepared by dissolving 0.5 mg of enzyme in 0.5 ml of phosphate buffer to get 1000 unit/ml and BChE solution was also prepared by dissolving 1 mg in 1 ml of phosphate buffer to get 10 unit/ml. These two solutions were further diluted by phosphate buffer till a final concentration of 0.03 unit/ml and 0.1 unit/ml respectively. DTNB solution (0.0002 M) and ATChI and BTChI (0.0005 M) were prepared and kept in reagent bottles in refrigerator before use.
To each test tube, 100 μl of enzyme and DTNB solutions were added and incubated for 15 min at 25 °C. After this 100 μl substrates (AChEI, BChEI) were added to each test tube and allowed to stand for 15 min. The absorbance of mixtures were recorded at 412 nm. A negative control was prepared by mixing all the above mention components except plant extracts. […] For each sample absorption was recorded for 4 minutes. Percent activities of enzyme and percent inhibition were calculated using following relations. 2 V=∆Abs/∆T 3 %enzyme activity=V/Vmaxx100
Where V is the rate of reaction in the presence of inhibitor and Vmax is the rate of reaction without inhibitor.

[4] = target: T2, acetyl cholinesterase from Electric eel (type-VI-S) (Electrophorus electricus, UniProt O42275); assay: biochemical; details: isolated compounds, Table 6; for inhibition at 125 µg/mL: 125 μg/mL; for inhibition at 125 µg/mL / inhibition at 250 µg/mL / inhibition at 500 µg/mL / inhibition at 1000 µg/mL: read-out: AChE percent inhibition (mean ± S.E.M); for inhibition at 250 µg/mL: 250 μg/mL; for inhibition at 500 µg/mL: 500 μg/mL; for inhibition at 1000 µg/mL: 1000 μg/mL; for IC50: read-out: AChE IC50 (converted)
T2 construct: purchased Sigma-Aldrich USA type-VI-S

[5] = 62.5 μg/mL, isolated compounds, Table 5
[6] = 125 μg/mL, isolated compounds, Table 5
[7] = 250 μg/mL, isolated compounds, Table 5
[8] = 500 μg/mL, isolated compounds, Table 5
[9] = 1000 μg/mL, isolated compounds, Table 5
[10] = isolated compounds, Table 6, read-out: BChE percent inhibition (mean ± S.E.M)
[11] = 250 μg/mL, isolated compounds, Table 6, read-out: BChE percent inhibition (mean ± S.E.M)
[12] = 500 μg/mL, isolated compounds, Table 6, read-out: BChE percent inhibition (mean ± S.E.M)
[13] = isolated compounds, Table 6, read-out: BChE IC50 (converted)

T1 sequence (P81908 whole entry): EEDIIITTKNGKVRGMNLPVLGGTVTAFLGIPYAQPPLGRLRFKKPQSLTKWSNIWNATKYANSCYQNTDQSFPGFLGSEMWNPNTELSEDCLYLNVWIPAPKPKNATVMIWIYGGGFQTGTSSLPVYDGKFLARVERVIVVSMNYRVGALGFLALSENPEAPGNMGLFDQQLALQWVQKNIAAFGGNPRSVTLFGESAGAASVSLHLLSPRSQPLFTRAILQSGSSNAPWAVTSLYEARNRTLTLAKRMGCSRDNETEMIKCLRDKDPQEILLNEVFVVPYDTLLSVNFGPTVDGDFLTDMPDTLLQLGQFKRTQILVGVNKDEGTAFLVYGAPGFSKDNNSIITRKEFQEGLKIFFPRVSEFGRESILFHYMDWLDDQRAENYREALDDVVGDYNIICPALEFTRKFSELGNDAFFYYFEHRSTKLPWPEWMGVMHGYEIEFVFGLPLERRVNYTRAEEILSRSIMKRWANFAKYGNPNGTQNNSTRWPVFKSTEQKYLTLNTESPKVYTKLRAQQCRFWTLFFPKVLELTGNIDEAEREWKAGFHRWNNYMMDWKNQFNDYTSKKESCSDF
T2 sequence (O42275 24-633): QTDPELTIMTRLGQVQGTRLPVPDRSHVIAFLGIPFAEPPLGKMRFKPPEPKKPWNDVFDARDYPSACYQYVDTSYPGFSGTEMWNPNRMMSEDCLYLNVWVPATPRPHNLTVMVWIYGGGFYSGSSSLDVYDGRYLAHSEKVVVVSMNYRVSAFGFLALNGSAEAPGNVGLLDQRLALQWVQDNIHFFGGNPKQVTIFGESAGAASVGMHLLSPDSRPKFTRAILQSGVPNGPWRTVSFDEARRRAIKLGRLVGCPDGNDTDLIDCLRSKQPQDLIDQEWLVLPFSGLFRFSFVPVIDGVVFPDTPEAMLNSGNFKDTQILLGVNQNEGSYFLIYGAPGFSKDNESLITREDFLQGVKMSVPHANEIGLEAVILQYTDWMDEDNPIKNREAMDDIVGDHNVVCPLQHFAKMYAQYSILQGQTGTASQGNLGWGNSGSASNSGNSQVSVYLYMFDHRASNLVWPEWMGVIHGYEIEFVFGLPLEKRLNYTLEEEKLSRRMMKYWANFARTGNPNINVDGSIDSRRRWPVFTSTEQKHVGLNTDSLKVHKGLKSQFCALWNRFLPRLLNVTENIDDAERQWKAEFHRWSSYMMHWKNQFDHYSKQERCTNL

Compound	DPPH percent inhibition (mean ± S.E.M) [1, 5]	DPPH percent inhibition (mean ± S.E.M) [1, 6]	DPPH percent inhibition (mean ± S.E.M) [1, 7]	DPPH percent inhibition (mean ± S.E.M) [1, 8]	DPPH percent inhibition (mean ± S.E.M) [1, 9]	DPPH IC50 ([1]; isolated compounds, Table 5) [µg/mL]	ABTS percent inhibition (mean ± S.E.M) [2, 5] [%]	ABTS percent inhibition (mean ± S.E.M) [2, 6] [%]	ABTS percent inhibition (mean ± S.E.M) [2, 7]	ABTS percent inhibition (mean ± S.E.M) [2, 8]	ABTS percent inhibition (mean ± S.E.M) [2, 9]	ABTS IC50 ([2]; isolated compounds, Table 5) [µg/mL]	inhibition at 125 µg/mL [3, 10] [%]	inhibition at 250 µg/mL [3, 11] [%]	inhibition at 500 µg/mL [3, 12] [%]	inhibition at 1000 µg/mL [3, 10] [%]	inhibition at 125 µg/mL [4] [%]	inhibition at 250 µg/mL [4] [%]	inhibition at 500 µg/mL [4] [%]	inhibition at 1000 µg/mL [4] [%]	other results
O=C1O[C@H]([C@@H](O)CO)C(O)=C1O [Ascorbic acid, reference compound]	53.78 ± 0.76%	62.90 ± 0.85%	71.34 ± 2.16%	80.45 ± 0.96%	92.67 ± 0.73%	50	50.88 ± 0.32	58.90 ± 0.48	68.93 ± 0.45%	80.29 ± 0.79%	89.94 ± 0.86%	62	–	–	–	–	–	–	–	–	DPPH percent inhibition (mean ± S.E.M) ([1]; 62.5 μg/mL, extracts, Table 2): 52.88 ± 0.32%; DPPH percent inhibition (mean ± S.E.M) ([1]; 125 μg/mL, extracts, Table 2): 62.90 ± 0.48%; DPPH percent inhibition (mean ± S.E.M) ([1]; 250 μg/mL, extracts, Table 2): 71.93 ± 0.45%; DPPH percent inhibition (mean ± S.E.M) ([1]; 500 μg/mL, extracts, Table 2): 80.29 ± 0.79%; DPPH percent inhibition (mean ± S.E.M) ([1]; 1000 μg/mL, extracts, Table 2): 92.94 ± 0.86%; DPPH IC50 ([1]; extracts, Table 2): 50 µg/mL; ABTS percent inhibition (mean ± S.E.M) ([2]; 62.5 μg/mL, extracts, Table 2): 49.78 ± 0.76%; ABTS percent inhibition (mean ± S.E.M) ([2]; 125 μg/mL, extracts, Table 2): 58.90 ± 0.85%; ABTS percent inhibition (mean ± S.E.M) ([2]; 250 μg/mL, extracts, Table 2): 68.34 ± 2.16%; ABTS percent inhibition (mean ± S.E.M) ([2]; 500 μg/mL, extracts, Table 2): 80.45 ± 0.96%; ABTS percent inhibition (mean ± S.E.M) ([2]; 1000 μg/mL, extracts, Table 2): 89.67 ± 0.73%; ABTS IC50 ([2]; extracts, Table 2): 64 µg/mL
COc1ccc2c3c1O[C@H]1C[C@@H](O)C=C[C@@]31CCN(C)C2 [Galanthamine, reference compound]	–	–	–	–	–	–	–	–	–	–	–	–	62.43 ± 0.39	71.8 ± 0.48	86.51 ± 0.77	92.26 ± 0.92	–	–	–	–	inhibition at 250 µg/mL ([3]; 250 μg/ml, extracts, Table 3, read-out: Percent BChE (mean ± SEM) inhibition): 76.72 ± 0.72%; inhibition at 500 µg/mL ([3]; 500 μg/ml, extracts, Table 3, read-out: Percent BChE (mean ± SEM) inhibition): 84.7 ± 1.2%
O=c1c(O)c(-c2ccc(O)cc2O)oc2cc(O)cc(O)c12 [Morin, 2-(2,4-Dihydroxyphenyl)-3,5,7-trihydroxychromen-4-one]	40.85 ± 0.94 %	48.72 ± 1.11 ^ns %	60.25 ± 2.28 %	72.72 ± 1.56 %	83.93 ± 0.72 %	105	30.50 ± 1.43	44.15 ± 0.56	58.04 ± 2.44 %	70.67 ± 1.02 %	80.86 ± 1.09 %	145	51.1 ± 0.56	60.51 ± 0.5	68.4 ± 2.22	80.46 ± 0.76	56.3 ± 1.45	68.8 ± 0.8	77.2 ± 0.91	85.5 ± 3.19	IC50 [4]: 212 µM; IC50 [3, 13]: 384 µM
Oc1cccc(O)c1O [Pyrogallol, Benzene-1,2,3-triol]	48.72 ± 0.89 ^ns %	59.93 ± 2.18 ^ns %	70.30 ± 1.05 ^ns %	81.64 ± 1.33 ^ns %	89.35 ± 0.92 ^ns %	68	39.60 ± 1.39	53.26 ± 1.62	66.42 ± 0.90 ^ns %	77.81 ± 1.09 ^ns %	87.02 ± 0.81 ^ns %	85	58.3 ± 0.93	71.2 ± 1.38	80.35 ± 0.3	92 ± 1.89	66.2 ± 2.14	80.12 ± 0.62	87.4 ± 1.51	94.35 ± 0.72	IC50 [4]: 222 µM; IC50 [3, 13]: 555 µM
C[C@@H]1O[C@@H](OC[C@H]2O[C@@H](Oc3c(-c4ccc(O)c(O)c4)oc4cc(O)cc(O)c4c3=O)[C@H](O)[C@@H](O)[C@@H]2O)[C@H](O)[C@H](O)[C@H]1O [Rutin, 3,3,4,5,7-pentadroxyflavones-3-rutinoside]	35.38 ± 2.28 %	46.63 ± 1.17 %	57.47 ± 0.93 %	68.43 ± 1.40 %	80.90 ± 1.27 %	150	29.75 ± 2.18	44.30 ± 0.79	57.56 ± 1.42 %	69.05 ± 0.64 %	78.33 ± 0.63 %	183	45 ± 3.79	56.7 ± 0.7	62.5 ± 1.72	72 ± 0.86	48.1 ± 0.64	60.2 ± 2.35	66.72 ± 0.62	75.1 ± 1.41	IC50 [4]: 193 µM; IC50 ([3]; BChE IC50, isolated compounds, Table 6): 282 µM
